In the experiment the target is CD73 (Homo sapiens (Human), UniProt P21589). Put plainly: Biochemical Assay (CD73 inhibition, AMP hydrolysis, Malachite Green readout). Conditions: CD73 0.3208 nM, AMP 15 μM, Tris-HCl pH 7.4, Malachite Green absorbance.
Chain of CD73 (P21589 27-574): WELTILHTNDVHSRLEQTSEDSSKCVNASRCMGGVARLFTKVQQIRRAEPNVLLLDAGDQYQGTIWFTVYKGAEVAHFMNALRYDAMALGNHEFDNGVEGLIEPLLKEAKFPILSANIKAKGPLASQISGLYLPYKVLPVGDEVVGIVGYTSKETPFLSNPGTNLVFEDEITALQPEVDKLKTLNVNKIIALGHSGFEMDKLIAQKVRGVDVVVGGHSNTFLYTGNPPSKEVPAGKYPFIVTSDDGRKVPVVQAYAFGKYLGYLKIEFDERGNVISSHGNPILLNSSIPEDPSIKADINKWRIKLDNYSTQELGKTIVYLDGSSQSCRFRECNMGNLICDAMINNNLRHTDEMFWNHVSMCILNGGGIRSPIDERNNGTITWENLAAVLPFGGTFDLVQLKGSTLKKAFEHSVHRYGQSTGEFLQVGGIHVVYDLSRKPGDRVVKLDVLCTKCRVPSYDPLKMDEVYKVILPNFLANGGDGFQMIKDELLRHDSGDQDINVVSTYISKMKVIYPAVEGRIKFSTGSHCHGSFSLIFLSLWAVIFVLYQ
In turn, `CC(C)CNc1nc(NCc2cccc(Cl)c2)c2cnn([C@@H]3O[C@H](COCP(=O)(O)O)[C@@H](O)[C@H]3O)c2n1` [Example 67, ((((2R,3S,4R,5R)-5-(4-((3-chlorobenzyl)amino)-6-(isobutylamino)-1H-pyrazolo[3,4-d]pyrimidin-1-yl)-3,4-dihydroxytetrahydrofuran-2-yl)methoxy)methyl)phosphonic acid] displayed an IC50 of more than 1000 nM.

The molecule `O=P(O)(O)COC[C@H]1O[C@@H](n2ncc3c(NCc4cccc5ncccc45)nc(Cl)nc32)[C@H](O)[C@@H]1O` [Example 51, ((((2R,3S,4R,5R)-5-(6-chloro-4-((quinolin-5-ylmethyl)amino)-1H-pyrazolo[3,4-d]pyrimidin-1-yl)-3,4-dihydroxytetrahydrofuran-2-yl)methoxy)methyl)phosphonic acid] gave an IC50 not above 500 nM.

For `CN(c1nc(Cl)nc2c1cnn2[C@@H]1O[C@H](COC(=O)CP(=O)(O)O)[C@@H](O)[C@H]1O)[C@H]1CCc2ccccc21` [Example 8, (2-(((2R,3S,4R,5R)-5-(6-Chloro-4-(((S)-2,3-dihydro-1H-inden-1-yl)(methyl)amino)-1H-pyrazolo[3,4-d]pyrimidin-1-yl)-3,4-dihydroxytetrahydrofuran-2-yl)methoxy)-2-oxoethyl)phosphonic acid], the IC50 is 500 to 1000 nM.

As for `O=P(O)(O)CCC[C@H]1O[C@@H](n2ncc3c(NC4CCCC4)nc(Cl)nc32)[C@H](O)[C@@H]1O` [Example 101, (3-((2R,3S,4R,5R)-5-(6-Chloro-4-(cyclopentylamino)-1H-pyrazolo[3,4-d]pyrimidin-1-yl)-3,4-dihydroxytetrahydrofuran-2-yl)propyl)phosphonic acid], the IC50 lay within 500 to 1000 nM.

Take `CN(CC1CC1)c1nc(Cl)nc2c1cnn2[C@@H]1O[C@H](CS(=O)(=O)CP(=O)(O)O)[C@@H](O)[C@H]1O` [Example 84, (((((2S,3S,4R,5R)-5-(6-chloro-4-((cyclopropylmethyl)(methyl)amino)-1H-pyrazolo[3,4-d]pyrimidin-1-yl)-3,4-dihydroxytetrahydrofuran-2-yl)methyl)sulfonyl)methyl)phosphonic acid]: the IC50 was not above 500 nM.

On to `O=P(O)(O)CSC[C@H]1O[C@@H](n2ncc3c(NCc4ccccc4Cl)nc(Cl)nc32)[C@H](O)[C@@H]1O` [Example 13, (((((2S,3S,4R,5R)-5-(6-Chloro-4-((2-chlorobenzyl)amino)-1H-pyrazolo[3,4-d]pyrimidin-1-yl)-3,4-dihydroxytetrahydrofuran-2-yl)methyl)thio)methyl)phosphonic acid], for which the concentration for half-maximal inhibition (IC50) is not above 500 nM.

`O=P(O)(O)COC[C@H]1O[C@@H](n2ncc3c(N4CCOCC4)nc(Cl)nc32)[C@H](O)[C@@H]1O` [Example 42, ((((2R,3S,4R,5R)-5-(6-chloro-4-morpholino-1H-pyrazolo[3,4-d]pyrimidin-1-yl)-3,4-dihydroxytetrahydrofuran-2-yl)methoxy)methyl)phosphonic acid] gave an IC50 not above 500 nM.

`O=P(O)(O)CS(=O)(=O)C[C@H]1O[C@@H](n2ncc3c(NC4CCC4)nc(Cl)nc32)[C@H](O)[C@@H]1O` [Example 107, (((((2S,3S,4R,5R)-5-(6-chloro-4-(cyclobutylamino)-1H-pyrazolo[3,4-d]pyrimidin-1-yl)-3,4-dihydroxytetrahydrofuran-2-yl)methyl)sulfonyl)methyl)phosphonic acid] returned an IC50 not above 500 nM.

As to `O=P(O)(O)CS(=O)(=O)C[C@H]1O[C@@H](n2nnc3c(NCc4cccc(Cl)c4)nc(Cl)nc32)[C@H](O)[C@@H]1O` [Example 122], the IC50 was not above 500 nM.

The molecule `O=P(O)(O)COC[C@H]1O[C@@H](n2nnc3c(NC4CCCC4)nc(Cl)nc32)[C@H](O)[C@@H]1O` [Example 95, ((((2R,3S,4R,5R)-5-(5-chloro-7-(cyclopentylamino)-3H-[1,2,3]triazolo[4,5-d]pyrimidin-3-yl)-3,4-dihydroxytetrahydrofuran-2-yl)methoxy)methyl)phosphonic acid] had an IC50 not above 500 nM.

As for `O=P(O)(O)COC[C@H]1O[C@@H](n2ncc3c(N4CCC4)nc(Cl)nc32)[C@H](O)[C@@H]1O` [Example 83, ((((2R,3S,4R,5R)-5-(4-(azetidin-1-yl)-6-chloro-1H-pyrazolo[3,4-d]pyrimidin-1-yl)-3,4-dihydroxytetrahydrofuran-2-yl)methoxy)methyl)phosphonic acid], the concentration for half-maximal inhibition (IC50) is not above 500 nM.

In turn, `Nc1nc(Cl)nc2c1cnn2[C@@H]1O[C@H](COCP(=O)(O)O)[C@@H](O)[C@H]1O` [Example 57, ((((2R,3S,4R,5R)-5-(4-amino-6-chloro-1H-pyrazolo[3,4-d]pyrimidin-1-yl)-3,4-dihydroxytetrahydrofuran-2-yl)methoxy)methyl)phosphonic acid] yielded an IC50 of 500 to 1000 nM.

For `CC(C)Nc1nc(Cl)nc2c1cnn2[C@@H]1O[C@H](COCP(=O)(O)O)[C@@H](O)[C@H]1O` [Example 74, ((((2R,3S,4R,5R)-5-(6-chloro-4-(isopropylamino)-1H-pyrazolo[3,4-d]pyrimidin-1-yl)-3,4-dihydroxytetrahydrofuran-2-yl)methoxy)methyl)phosphonic acid], the concentration for half-maximal inhibition (IC50) is not above 500 nM.

Turning to `O=P(O)(O)COC[C@H]1O[C@@H](n2ncc3c(NC4CC4)nc(Cl)nc32)[C@H](O)[C@@H]1O` [Example 76, ((((2R,3S,4R,5R)-5-(6-chloro-4-(cyclopropylamino)-1H-pyrazolo[3,4-d]pyrimidin-1-yl)-3,4-dihydroxytetrahydrofuran-2-yl)methoxy)methyl)phosphonic acid], the IC50 was not above 500 nM.

For the molecule `C[C@H](Nc1nc(Cl)nc2c1cnn2[C@@H]1O[C@H](COCP(=O)(O)O)[C@@H](O)[C@H]1O)c1cccc(Cl)c1` [Example 34, ((((2R,3S,4R,5R)-5-(6-chloro-4-(((S)-1-(3-chlorophenyl)ethyl)amino)-1H-pyrazolo[3,4-d]pyrimidin-1-yl)-3,4-dihydroxytetrahydrofuran-2-yl)methoxy)methyl)phosphonic acid], the IC50 is not above 500 nM.

With `C[C@H]1CCC[C@H]1Nc1nc(Cl)nc2c1cnn2[C@@H]1O[C@H](CS(=O)(=O)CP(=O)(O)O)[C@@H](O)[C@H]1O` [Example 134, (((((2S,3S,4R,5R)-5-(6-chloro-4-(((1R,2S)-2-methylcyclopentyl)amino)-1H-pyrazolo[3,4-d]pyrimidin-1-yl)-3,4-dihydroxytetrahydrofuran-2-yl)methyl)sulfonyl)methyl)phosphonic acid], the IC50 is not above 500 nM.

Take `CN(C[C@H]1O[C@@H](n2ncc3c(NC4CCCC4)nc(Cl)nc32)[C@H](O)[C@@H]1O)S(=O)(=O)CP(=O)(O)O` [Example 98, ((N-(((2R,3S,4R,5R)-5-(6-Chloro-4-(cyclopentylamino)-1H-pyrazolo[3,4-d]pyrimidin-1-yl)-3,4-dihydroxytetrahydrofuran-2-yl)methyl)-N-methylsulfamoyl)methyl)phosphonic acid]: the IC50 was not above 500 nM.

On to `O=P(O)(O)CS(=O)(=O)C[C@H]1O[C@@H](n2nnc3c(NC4Cc5ccccc5C4)nc(Cl)nc32)[C@H](O)[C@@H]1O` [Example 121, (((((2S,3S,4R,5R)-5-(5-chloro-7-((2,3-dihydro-1H-inden-2-yl)amino)-3H-[1,2,3]triazolo[4,5-d]pyrimidin-3-yl)-3,4-dihydroxytetrahydrofuran-2-yl)methyl)sulfonyl)methyl)phosphonic acid], for which the 50% inhibitory concentration (IC50) is not above 500 nM.

In the case of “((((1R,2R,3S,4R)-4-(5-Chloro-7-(((R)-2,3-dihydro-1H-inden-1-yl)amino)-3H-[1,2,3]triazolo[4,5-d]pyrimidin-3-yl)-2,3-dihydroxycyclopentyl)methoxy)methyl)phosphonic acid [Example 23]”, the 50% inhibitory concentration (IC50) is not above 500 nM.

On to `O=P(O)(O)COC[C@H]1O[C@@H](n2ncc3c(NCc4cccc(Cl)c4)nc(N4CCCC4)nc32)[C@H](O)[C@@H]1O` [Example 55, ((((2R,3S,4R,5R)-5-(4-((3-chlorobenzyl)amino)-6-(pyrrolidin-1-yl)-1H-pyrazolo[3,4-d]pyrimidin-1-yl)-3,4-dihydroxytetrahydrofuran-2-yl)methoxy)methyl)phosphonic acid], for which the IC50 was more than 1000 nM.

Molecule `O=P(O)(O)COC[C@H]1O[C@@H](n2nnc3c(NCc4ccccc4Cl)nc(Cl)nc32)[C@H](O)[C@@H]1O` [Example 30, ((((2R,3S,4R,5R)-5-(5-chloro-7-((2-chlorobenzyl)pamino)-3H-[1,2,3]triazolo[4,5-d]pyrimidin-3-yl)-3,4-dihydroxytetrahydrofuran-2-yl)methoxy)methyl)phosphonic acid] gave an IC50 not above 500 nM.

Consider `CC1(CNc2nc(Cl)nc3c2cnn3[C@@H]2O[C@H](COCP(=O)(O)O)[C@@H](O)[C@H]2O)CC1` [Example 96, ((((2R,3S,4R,5R)-5-(6-chloro-4-(((1-methylcyclopropyl)methyl)amino)-1H-pyrazolo[3,4-d]pyrimidin-1-yl)-3,4-dihydroxytetrahydrofuran-2-yl)methoxy)methyl)phosphonic acid], for which the IC50 was not above 500 nM.

Take `O=P(O)(O)COC[C@H]1O[C@@H](n2ncc3c(NCc4ccccc4Cl)nc(CO)nc32)[C@H](O)[C@@H]1O` [Example 17, ((((2R,3S,4R,5R)-5-(4-((2-Chlorobenzyl)amino)-6-(hydroxymethyl)-1H-pyrazolo[3,4-d]pyrimidin-1-yl)-3,4-dihydroxytetrahydrofuran-2-yl)methoxy)methyl)phosphonic acid]: the IC50 is not above 500 nM.

In the case of `CN(Cc1ccccc1)c1nc(Cl)nc2c1cnn2[C@H]1O[C@H](COCCP(=O)(O)O)[C@@H](O)[C@H]1O` [Example 6, (2-(((2R,3S,4R,5S)-5-(4-(Benzyl(methyl)amino)-6-chloro-1H-pyrazolo[3,4-d]pyrimidin-1-yl)-3,4-dihydroxytetrahydrofuran-2-yl)methoxy)ethyl)phosphonic acid], the half-maximal inhibitory concentration (IC50) is more than 1000 nM.

In the case of `O=P(O)(O)CS(=O)(=O)C[C@H]1O[C@@H](n2ncc3c(NC4CCCC4)nc(CO)nc32)[C@H](O)[C@@H]1O` [Example 125, (((((2S,3S,4R,5R)-5-(4-(cyclopentylamino)-6-(hydroxymethyl)-1H-pyrazolo[3,4-d]pyrimidin-1-yl)-3,4-dihydroxytetrahydrofuran-2-yl)methyl)sulfonyl)methyl)phosphonic acid], the half-maximal inhibitory concentration (IC50) was not above 500 nM.

The record behind these values is patent US11377469B2, “CD73 inhibitors” (ORIC Pharmaceuticals, Inc., priority 2017, dated 2022).
